Read-outs that look alike come from different tables or passages of the source.
Legend:
[1] = system: Aβ40 in conditioned medium of cells stably expressing Amyloid Precursor Protein (APP); assay: In vitro BACE cell-based assay (Aβ40 sandwich ELISA); conditions: Homo sapiens, HEK293, average IC50; HEK cells; read-out: HEK cell assay IC50
Method: In Vitro BACE Cell-Based Assay
The cell-based assay measures inhibition or reduction of Aβ40 in conditioned medium of test compound treated cells expressing amyloid precursor protein.
Cells stably expressing Amyloid Precursor Protein (APP) were plated at a density of 40K cells/well in 96 well plates (Costar). The cells were cultivated for 24 hours at 37° C. and 5% CO2 in DMEM supplemented with 10% FBS. The test compounds were then added to cells in 10-point dose response concentrations with the starting concentration being either 100 μM or 10 μM. The compounds were diluted from stock solutions in DMSO and the final DMSO concentration of the test compounds on cells was 0.1%. After 24 h of incubation with the test compounds the supernatant conditioned media was collected and the Aβ 40 levels were determined using a sandwich ELISA. The IC50 of the compound was calculated from the percent of control or percent inhibition of Aβ 40 as a function of the concentration of the test compound.
The sandwich ELISA to detect Aβ 40 was performed in 96 well microtiter plates, which were pre-treated with goat anti-rabbit IgG (Pierce). The capture and detecting antibody pair that were used to detect Aβ 40 from cell supernatants were affinity purified pAb40 (Biosource) and biotinylated 6E10 (Signet Labs Inc.), respectively. The optimal concentration for the pAb40 antibody was 3 μg/ml in Superblock/TBS (Pierce) that was supplemented with 0.05% Tween 20 (Sigma).
Cellular supernatants were incubated with the capture antibody for 3 h at 4° C., followed by 3 wash steps in TBS-tween (0.05%). The detecting antibody incubation was for 2 h at 4° C., again followed by the wash steps as described previously. The final readout of the ELISA is Time-Resolved Fluorescence (counts per minute) using Delfia reagents Streptavidin-Europium and Enhancement solutions (Perkin Elmer) and the Victor 2 multilabel counter (Perkin Elmer).

Cathepsin D (Cat D) = Cathepsin D (Cat D) (Homo sapiens (Human), UniProt P07339); assay: In vitro enzymatic Cathepsin D (Cat D) FRET assay; assay type: biochemical; conditions: read-out: CatD IC50
Chain of Cathepsin D (Cat D) (P07339 65-412, species assumed): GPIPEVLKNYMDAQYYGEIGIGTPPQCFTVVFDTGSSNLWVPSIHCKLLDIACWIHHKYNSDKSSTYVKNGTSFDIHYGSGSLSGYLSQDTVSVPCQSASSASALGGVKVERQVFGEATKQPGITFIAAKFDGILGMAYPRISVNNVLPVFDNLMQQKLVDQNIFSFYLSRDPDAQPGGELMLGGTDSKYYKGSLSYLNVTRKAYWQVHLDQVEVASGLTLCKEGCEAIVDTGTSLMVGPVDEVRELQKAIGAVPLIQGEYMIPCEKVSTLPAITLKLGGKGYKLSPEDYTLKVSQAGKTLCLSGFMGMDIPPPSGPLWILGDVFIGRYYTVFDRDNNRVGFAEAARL
Method: In Vitro Enzymatic Cathepsin D (Cat D) FRET (Fluorescence Resonance Energy Transfer) Assay
Recombinant Cat D was expressed in CHO cells. The assay buffer for CathepsinD is 0.05 M citrate pH 3.5, 10% DMSO final, 5 mM CHAPS. […] The assays are effectively started by the addition of different FRET substrates (20 nM for Cat D) and the combination is incubated for one hour. The FRET assay is terminated with by addition of Tris buffer, which raises the pH to neutrality, and the fluorescence is determined. The FRET substrate is a peptide with commercially available fluorophore and quencher, on opposite sides of the BACE cleavage site. […] Proteolytic cleavage of the FRET substrate releases quenching of fluorescence (Cat D excitation 500 nm and emission 580 nm).
In addition, the cathepsin D and cathepsin E assays are described in PCT publication WO2011069934.

[2] = average IC50, cathepsin D enzyme assay

Row | Structure (SMILES) | IC50 (Cathepsin D (Cat D); average) [µM] | further results
1 | N#Cc1cnc2c(Nc3ccc(F)c([C@]4(CF)C[C@@H](C(F)(F)F)OC(N)=N4)c3)ncnc2c1 [Example 23, 4-((3-((4S,6S)-2-amino-4-(fluoromethyl)-6-(trifluoromethyl)-5,6-dihydro-4H-1,3-oxazin-4-yl)-4-fluorophenyl)amino)pyrido[3,2-d]pyrimidine-7-carbonitrile] |  | IC50 [1]: 0.192 µM
2 | NC1=N[C@](CF)(c2cc(NC(=O)c3ccc(C#CC4CC4)cn3)cc(F)c2F)C[C@@H](C(F)(F)F)O1 [Example 158, N-(3-((4S,6S)-2-amino-4-(fluoromethyl)-6-(trifluoromethyl)-5,6-dihydro-4H-1,3-oxazin-4-yl)-4,5-difluorophenyl)-5-(cyclopropylethynyl)picolinamide] |  | IC50 (Cathepsin D (Cat D); [2]): > 400 µM
3 | CC#CCOc1ccc(C(=O)Nc2cc(F)c(F)c([C@]3(CF)C[C@@H](C(F)(F)F)OC(N)=N3)c2)nc1 [Example 160, N-(3-((4S,6S)-2-amino-4-(fluoromethyl)-6-(trifluoromethyl)-5,6-dihydro-4H-1,3-oxazin-4-yl)-4,5-difluorophenyl)-5-(but-2-yn-1-yloxy)picolinamide] |  | IC50 (Cathepsin D (Cat D); [2]): > 400 µM
4 | N#Cc1cnc2c(Nc3cc(F)c(F)c([C@]4(CF)C[C@@H](C(F)(F)F)OC(N)=N4)c3)nccc2c1 [Example 162, 8-((3-((4S,6S)-2-amino-4-(fluoromethyl)-6-(trifluoromethyl)-5,6-dihydro-4H-1,3-oxazin-4-yl)-4,5-difluorophenyl)amino)-1,7-naphthyridine-3-carbonitrile] |  | IC50 (Cathepsin D (Cat D); [2]): > 400 µM
5 | COc1cnc2c(Nc3cc(F)c(F)c([C@]4(C)C[C@@H](C(F)(F)F)OC(N)=N4)c3)nccc2n1 [Example 178, (4S,6S)-4-(2,3-difluoro-5-((2-methoxypyrido[3,4-b]pyrazin-5-yl)amino)phenyl)-4-methyl-6-(trifluoromethyl)-5,6-dihydro-4H-1,3-oxazin-2-amine] |  | IC50 (Cathepsin D (Cat D); [2]): 519 µM
6 | COc1cnc2c(Nc3cc(F)c(F)c([C@]4(C)C[C@@H](C(F)(F)F)OC(N)=N4)c3)nccc2c1 [Example 179] |  | IC50 (Cathepsin D (Cat D); [2]): > 400 µM
7 | CC#CCOc1cnc(C(=O)Nc2cc(F)c(F)c([C@]3(C)C[C@@H](C(F)(F)F)OC(N)=N3)c2)c(C)c1 [Example 188, N-(3-((4S,6S)-2-amino-4-methyl-6-(trifluoromethyl)-5,6-dihydro-4H-1,3-oxazin-4-yl)-4,5-difluorophenyl)-5-(but-2-yn-1-yloxy)-3-methylpicolinamide] | 286 | 
8 | Cc1cc(OCC(F)(F)F)cnc1C(=O)Nc1cc(F)c(F)c([C@]2(C)C[C@@H](C(F)(F)F)OC(N)=N2)c1 [Example 194, N-(3-((4S,6S)-2-amino-4-methyl-6-(trifluoromethyl)-5,6-dihydro-4H-1,3-oxazin-4-yl)-4,5-difluorophenyl)-3-methyl-5-(2,2,2-trifluoroethoxy)picolinamide] | > 400 | 
9 | C[C@@]1(c2cc(NC(=O)c3ccc(C(F)F)cn3)cc(F)c2F)C[C@@H](C(F)(F)F)OC(N)=N1 [Example 200, N-(3-((4S,6S)-2-amino-4-methyl-6-(trifluoromethyl)-5,6-dihydro-4H-1,3-oxazin-4-yl)-4,5-difluorophenyl)-5-(difluoromethyl)picolinamide] | 997 | 
10 | COc1cnc(C(=O)Nc2cc(F)c(F)c([C@]3(C)C[C@@H](C(F)(F)F)OC(N)=N3)c2)c(C)c1 [Example 202, N-(3-((4S,6S)-2-amino-4-methyl-6-(trifluoromethyl)-5,6-dihydro-4H-1,3-oxazin-4-yl)-4,5-difluorophenyl)-5-methoxy-3-methylpicolinamide] | 1140 | 
11 | C[C@@]1(c2cc(NC(=O)c3ccc(Cl)cn3)cc(Cl)c2F)C[C@@H](C(F)(F)F)OC(N)=N1 [Example 207, N-(3-((4S,6S)-2-amino-4-methyl-6-(trifluoromethyl)-5,6-dihydro-4H-1,3-oxazin-4-yl)-5-chloro-4-fluorophenyl)-5-chloropicolinamide] | 386 | 
12 | Cc1cc(C#N)cnc1C(=O)Nc1cc(Cl)c(F)c([C@]2(C)C[C@@H](C(F)(F)F)OC(N)=N2)c1 [Example 210, N-(3-((4S,6S)-2-amino-4-methyl-6-(trifluoromethyl)-5,6-dihydro-4H-1,3-oxazin-4-yl)-5-chloro-4-fluorophenyl)-5-cyano-3-methylpicolinamide] | 416 | 
13 | Cc1cc(C(F)F)cnc1C(=O)Nc1cc(C)c(F)c([C@]2(CF)C[C@@H](C(F)(F)F)OC(N)=N2)c1 [Example 216, N-(3-((4S,6S)-2-amino-4-(fluoromethyl)-6-(trifluoromethyl)-5,6-dihydro-4H-1,3-oxazin-4-yl)-4-fluoro-5-methylphenyl)-5-(difluoromethyl)-3-methylpicolinamide] | > 400 | 
14 | Cc1cc(NC(=O)c2ccc(F)cn2)cc([C@]2(CF)C[C@@H](C(F)(F)F)OC(N)=N2)c1F [Example 223, N-(3-((4S,6S)-2-amino-4-(fluoromethyl)-6-(trifluoromethyl)-5,6-dihydro-4H-1,3-oxazin-4-yl)-4-fluoro-5-methylphenyl)-5-fluoropicolinamide] | 833 | 
15 | C[C@@]1(c2cc(NC(=O)c3ccc(Cl)cn3)cc(F)c2Cl)C[C@@H](C(F)(F)F)OC(N)=N1 [Example 236, N-(3-((4S,6S)-2-amino-4-methyl-6-(trifluoromethyl)-5,6-dihydro-4H-1,3-oxazin-4-yl)-4-chloro-5-fluorophenyl)-5-chloropicolinamide] | 408 | 
16 | COc1cnc(C(=O)Nc2cc(F)c(Cl)c([C@]3(C)C[C@@H](C(F)(F)F)OC(N)=N3)c2)cn1 [Example 237, N-(3-((4S,6S)-2-amino-4-methyl-6-(trifluoromethyl)-5,6-dihydro-4H-1,3-oxazin-4-yl)-4-chloro-5-fluorophenyl)-5-methoxypyrazine-2-carboxamide] | 194 | 

Now from value to molecule, other results behind:

Row | IC50 (Cathepsin D (Cat D); average) [µM] | Structure (SMILES) | further results
17 | > 400 | Cc1cc(OC(F)F)cnc1C(=O)Nc1cc(F)c(F)c([C@]2(C)C[C@@H](C(F)(F)F)OC(N)=N2)c1 [Example 174, N-(3-((4S,6S)-2-amino-4-methyl-6-(trifluoromethyl)-5,6-dihydro-4H-1,3-oxazin-4-yl)-4,5-difluorophenyl)-5-(difluoromethoxy)-3-methylpicolinamide] | 
18 | > 400 | Cc1nc(OCC(F)(F)F)cnc1C(=O)Nc1cc(F)c(F)c([C@]2(C)C[C@@H](C(F)(F)F)OC(N)=N2)c1 [Example 197, N-(3-((4S,6S)-2-amino-4-methyl-6-(trifluoromethyl)-5,6-dihydro-4H-1,3-oxazin-4-yl)-4,5-difluorophenyl)-3-methyl-5-(2,2,2-trifluoroethoxy)pyrazine-2-carboxamide] | 
19 | > 400 | C[C@@]1(c2cc(NC(=O)c3ncc(C(F)F)cc3Cl)cc(F)c2F)C[C@@H](C(F)(F)F)OC(N)=N1 [Example 198, N-(3-((4S,6S)-2-amino-4-methyl-6-(trifluoromethyl)-5,6-dihydro-4H-1,3-oxazin-4-yl)-4,5-difluorophenyl)-3-chloro-5-(difluoromethyl)picolinamide] | 
20 | > 400 | COc1cnc(C(=O)Nc2cc(Cl)c(F)c([C@]3(C)C[C@@H](C(F)(F)F)OC(N)=N3)c2)c(C)n1 [Example 215, N-(3-((4S,6S)-2-amino-4-methyl-6-(trifluoromethyl)-5,6-dihydro-4H-1,3-oxazin-4-yl)-5-chloro-4-fluorophenyl)-5-methoxy-3-methylpyrazine-2-carboxamide] | 
21 | 992 | Cc1cc(NC(=O)c2ccc(C(F)F)cn2)cc([C@]2(CF)C[C@@H](C(F)(F)F)OC(N)=N2)c1F [Example 221, N-(3-((4S,6S)-2-amino-4-(fluoromethyl)-6-(trifluoromethyl)-5,6-dihydro-4H-1,3-oxazin-4-yl)-4-fluoro-5-methylphenyl)-5-(difluoromethyl)picolinamide] | 
22 | 1120 | COc1ccc(C(=O)Nc2cc(C)c(F)c([C@]3(CF)C[C@@H](C(F)(F)F)OC(N)=N3)c2)nc1 [Example 229, N-(3-((4S,6S)-2-amino-4-(fluoromethyl)-6-(trifluoromethyl)-5,6-dihydro-4H-1,3-oxazin-4-yl)-4-fluoro-5-methylphenyl)-5-methoxypicolinamide] | 
23 | > 400 | NC1=N[C@](CF)(c2cc(NC(=O)c3ncc(Cl)cc3F)cc(F)c2F)C[C@@H](C(F)(F)F)O1 [Example 233, N-(3-((4S,6S)-2-amino-4-(fluoromethyl)-6-(trifluoromethyl)-5,6-dihydro-4H-1,3-oxazin-4-yl)-4,5-difluorophenyl)-5-chloro-3-fluoropicolinamide] | 

From patent US9296734B2 (AMGEN INC., priority 2013, dated 2016)
